For test [1], the system named is ECM deposition of collagen I, collagen V and fibulin 1 by phLFs+TGFβ1. The test is described as follows: 3D ECM deposition assay (collagen I, collagen V, fibulin 1), dose-response and live imaging. It is filed as cell-based, human. To be noted: phLFs+TGFβ1+EDHB. On the procedure: phLFs were cultured in DMEM F-12 medium with 20% fetal bovine serum (FBS) and antibiotic supplement as mentioned above. Cells were seeded with 6000 cells/well in 384-well CellCarrier plates (Perkin Elmer, Cat #6007550). Following overnight incubation, cells were starved in serum-reduced medium (1% FBS with 0.1 mM 2-phosphoascorbate (Sigma, Cat #49752)) for 24 h. Afterwards, cells were treated with TGFβ1 (1 ng/ml) or vehicle, and additionally small molecules or appropriate vehicle controls were added. […] Fluorescenceconjugation of the collagen type 1 antibody was done by using the AlexaFluor-555 Protein Labeling Kit (Invitrogen, Cat #A20174) according to manufacturer's instructions. […]
Following fixation, the automated imaging was achieved by using aconfocal laser scanning microscope (LSM710, Zeiss) with automated focus detection for three-dimensional image acquisition (1024 px×1024 px×9 px which equals a dimension of 1417 μm×1417 μm×16 μm). For post-acquisition analysis images were imported into IMARIS software (Bitplane) and volume detection or alternatively quantification of the mean fluorescence intensity, as well as Hoechst-stained cell nuclei were automatically counted by using Imaris' spot detection algorithm. […]

Test [2] concerns collagen I, collagen V, fibulin 1, fibronectin, αSMA protein in phLFs. The test is described as follows: Western blotting of ECM proteins and αSMA in phLFs (lysates and medium supernatants). It is filed as cell-based, human. Here is the method:
Cells were scraped off the plastic dish directly into 200 μl ice-cold RIPA buffer containing 1× Roche complete mini protease inhibitor cocktail. After incubating the samples for 30 minutes on ice, insoluble material was removed by centrifugation at 14.000 g for 15 minutes at 4° C. and the supernatant was further processed. Samples were mixed with 50 mM Tris-HCl, pH 6.8, 100 mM DTT, 2% SDS, 1% bromphenol blue, and 10% glycerol, and proteins were separated using standard SDS-10% PAGE. For immunoblotting, proteins were transferred to PVDF (Millipore (Billerica, MA, (USA)), 0.45 μm or 0.2 μm) membranes, which were blocked with 5% milk in TBST (0.1% Tween 20 in TBS) and incubated with primary, followed by HRP-conjugated secondary antibodies over night at 4° C. and at room temperature for 1 hour, respectively. For immunoblotting the following primary antibodies were used: monoclonal mouse anticollagen type 5 (1 mg/mL) from […] (Cat #sc-166155), polyclonal rabbit anti-collagen type 3 (1 mg/mL) from Rockland (Cat #600-401-105), polyclonal rabbit anti-collagen type 1 (1 mg/mL) from Rockland (Cat #600-401-103-0.5), monoclonal mouse anti-fibulin 1 (1 mg/mL) from SantaCruz (Cat #sc-25281), polyclonal rabbit anti-fibronectin (1 mg/mL) from SantaCruz (Cat #sc-9068), and monoclonal mouse anti-p-actin-peroxidase (AC-15, Sigma, 1:10000). Goat anti-rabbit and goat anti-mouse IgG conjugated to horseradish peroxidase (Cell Signaling, 1:10000) were applied as secondary antibodies. CXCL/IL-8 concentrations were determined using Human IL-8/CXCL8 DuoSet ELISA (DY208-05) according to the manufacturer's protocol.
(A western blot detects proteins with antibodies after separation by electrophoresis.)

Test [3] relates to TGFβ1-induced fibulin-1 ECM deposition in primary human lung IPF-fibroblasts (phLFs). The test is described as follows: Assessing N23P activity in inhibiting ECM deposition in IPF-fibroblasts (fibulin-1 MFI). The conditions noted are these: Homo sapiens, 72 h, 10 μM, TGFβ1 1 ng/ml, MFI. The class given is cell-based. On the procedure:
phLFs were cultured in DMEM F-12 medium with 20% fetal bovine serum (FBS) and antibiotic supplement as mentioned above. Cells were seeded with 6000 cells/well in 384-well CellCarrier plates (Perkin Elmer, Cat #6007550). Following overnight incubation, cells were starved in serum-reduced medium (1% FBS with 0.1 mM 2-phosphoascorbate (Sigma, Cat #49752)) for 24 h. Afterwards, cells were treated with TGFβ1 (1 ng/ml) or vehicle, and additionally small molecules or appropriate vehicle controls were added. After 72 h of incubation, medium was changed for starving medium with 1 μg/mL AlexaFluor-488 fluorophore conjugated anti-collagen-type-5 antibodies (SantaCruz, Clone C-5, Cat #sc-166155 AF488), 0.66 μg/mL AlexaFluor-555 fluorophore conjugated anti-collagen-type-1 antibodies (Rockland, Cat #600-401-103-0.1), and 1 μg/mL AlexaFluor-637 fluorophore conjugated anti-fibulin 1 antibodies (SantaCruz, Clone C-5, Cat #sc-25281 AF647) and 1 μg/mL Hoechst H33342 (Sigma). Fluorescenceconjugation of the collagen type 1 antibody was done by using the AlexaFluor-555 Protein Labeling Kit (Invitrogen, Cat #A20174) according to manufacturer's instructions. Labeling efficacy was controlled by photometrical means.
Following four hours of incubation, cells were washed three times with PBS and fixed with paraformaldehyde (PFA). For automated liquid handling in 384 well plates, an INTEGRA Assist Plus (INTEGRA, Zizers, Switzerland) equipped with an INTEGRA Viaflo 1I pipette (INTEGRA, Zizers, Switzerland, Cat #4642), 125 μL GripTips™ pipette tips (INTEGRA, Zizers, Switzerland, Cat #6464) and sterile reagent reservoirs (INTEGRA, Cat #4311) were applied. All automated pipetting steps with the INTEGRA Assist Plus were performed at 9.5 μL/s in order to ensure proper integrity and attachment of the deposited ECM to the culturing surface within the wells of the 384-well plates. During cell seeding the automated liquid handling was performed at 89.3 μL/s. Removal of liquids from the well-plates was done by manually inverting the plates.
Following fixation, the automated imaging was achieved by using aconfocal laser scanning microscope (LSM710, Zeiss) with automated focus detection for three-dimensional image acquisition (1024 px×1024 px×9 px which equals a dimension of 1417 μm×1417 μm×16 μm). For post-acquisition analysis images were imported into IMARIS software (Bitplane) and volume detection or alternatively quantification of the mean fluorescence intensity, as well as Hoechst-stained cell nuclei were automatically counted by using Imaris' spot detection algorithm.
Cells were seeded with 6000 cells/well in 384-well CellCarrier plates. After overnight incubation, cells were starved in serum-reduced medium (1% FBS with 0.1 mM 2-phosphoascorbate for 24 h). Then, phLFs were treated with TGFβ1 (1 ng/ml) or vehicle, and incubated together with synthesized N23Ps (10 μM) or appropriate vehicle controls. After 72 h of incubation, medium was changed for starvation medium with 1 μg/mL AlexaFluor-637 fluorophore conjugated anti-fibulin 1 antibodies (SantaCruz, Clone C-5, Cat #sc-25281 AF647) and 1 μg/mL Hoechst H33342 (Sigma). Following four hours of incubation, cells were washed three times with PBS and fixed with paraformaldehyde (PFA). Following fixation, the automated imaging was achieved by using a confocal laser scanning microscope (LSM710, Zeiss) with automated focus detection for three-dimensional image acquisition (1024 px×1024 px×9 px which equals a dimension of 1417 μm×1417 μm×16 μm). For post-acquisition analysis images were imported into IMARIS software (Bitplane) and quantified for the mean fluorescence intensity, as well as Hoechst-stained cell nuclei were automatically counted by using Imaris' spot detection algorithm.
Assessment of ECM inhibition I: Mean fluorescence intensity (MFI) values represented the degree of fibulin-1 ECM deposition in three different IPF-phLFs (n=3). […]

The mark [4] stands for this setting: concomitant treatment with TGFβ1.
Where [5] appears, read: one or two different IPF-phLFs (n=1-2).
Setting [6] is: three different IPF-phLFs (n=3).

A value given as a limit tells only on which side of the number the result lay.

Regarding `CCOC(=O)c1ccc(O)c(O)c1` [EDHB, Ethyl-3,4-dihydroxy-benzoate], the “ECM deposition of collagen I, collagen V and fibulin 1” value in test [1] is reported as “inhibits the ECM deposition”. Moreover, in test [2] (setting [4]), the “expression of intracellular collagen I, collagen V and fibulin 1” value is listed as “statistically significant suppression”; the “secreted collagen I” value is reported as “significant suppression”.

Take `C[C@H]1CCC/C=C/[C@@H]2C[C@H](O)C[C@H]2[C@H](O)/C=C/C(=O)O1` [BrefeldinA]: the “secretion of collagen I and fibronectin” value in test [2] (medium supernatants of phLFs) is reported as “inhibited the secretion”.

The inhibition is the relative decrease from the control value, in per cent. A high value points to strong suppression. `COc1ccc(/C=C/C(=O)Nc2ccccc2OCCCC2CC2)cc1` [Example 60, (E)-N-(2-(3-cyclopropylpropoxy)phenyl)-3-(4-methoxyphenyl)acrylamide]: in test [3] (setting [5]), the inhibition at 10 µM is greater than 90%.

In test [3] (setting [6]), `CCCCOc1ccccc1N(Cc1ccccc1)C(=O)/C=C/c1ccc(OC)cc1` [Example 75, (E)-N-benzyl-N-(2-butoxyphenyl)-3-(4-methoxyphenyl)acrylamide] registered an inhibition at 10 µM greater than 90%.

In test [3] (setting [6]), `CCCCOc1cc(F)ccc1NC(=O)/C=C/c1ccc(OC)cc1` [Example 31, (E)-N-(2-butoxy-4-fluorophenyl)-3-(4-methoxyphenyl)acrylamide] gave an inhibition at 10 µM of 60 to 90%.

As to `CCCCOc1ccccc1NC(=O)/C=C/c1ccc2occc2c1` [Example 37, (E)-3-(benzofuran-5-yl)-N-(2-butoxyphenyl)acrylamide], in test [3] (setting [6]), the inhibition at 10 µM is greater than 90%.

Turning to `CCCCOc1c(NC(=O)/C=C/c2ccc3sc(C)nc3c2)ccc(F)c1F` [Example 162, (E)-N-(2-butoxy-3,4-difluorophenyl)-3-(2-methylbenzo[d]thiazol-5-yl)acrylamide], the inhibition at 10 µM in test [3] (setting [5]) was 60 to 90%.

The values are drawn from US20240294465A1, “NOVEL ANTI-FIBROTIC DRUGS” (HELMHOLTZ ZENTRUM MUNCHEN - DEUTSCHES FORSCHUNGSZENTRUM FUR …, priority 2021, published 2024).
